From PubChem BioAssay AID1508591

conditions: rat; liver microsomes; pH 7.4; 15.0 min; 1.0 µM

Structure (SMILES)	half-life
CC(C)c1ccccc1-c1nc2c(c(NCc3ccc(-c4cccnc4)cc3)n1)CNC2	6.21 min
COc1ccc(CNC(=O)c2cnc3ccccc3n2)cc1	9.3 min
Oc1ccc(-c2nc(C3CC3)nc3c2CCN(CC2CCCCC2)CC3)cc1	5.28 min
CCN(C(=O)C(NS(=O)(=O)c1ccc(Br)s1)c1ccccc1)c1ccc(C)c(C)c1 (stereo not given)	0.99 min
COC(=O)c1nc(-c2cccc3ccccc23)oc1OC	14 min
Cc1cccc(C)c1C(=O)Nc1cccc([S+](=O)([O-])N(C)C)c1	8 min
O=C1CCCC2=C1C(c1[nH]ncc1Cl)N=C(Nc1nc3c(Br)cccc3o1)N2 (stereo not given)	3.2 min
Cc1ccc(S(=O)(=O)Nc2cc(C(=O)Nc3nc(-c4ccccc4)cs3)ccc2Cl)cc1	15 min
Cc1c(Cl)cccc1NC(=O)CNS(=O)(=O)c1cccs1	5.47 min
CC(C)COc1ccc(-c2ccc(=O)n(CC(=O)NCCc3ccccc3)n2)cc1	1.8 min
COCCNc1ncc(-c2cccc(O)c2)c2c1OCC2	8.62 min
COC(=O)[C@]12CCC(C)(C)C[C@@H]1[C@@H]1C(=O)C=C3[C@@]4(C)C=C(C#N)C(=O)C(C)(C)[C@@H]4CC[C@@]3(C)[C@]1(C)CC2	5.97 min
CC1(C)CCC(c2ccc(Cl)cc2)=C(CN2CCN(c3ccc(C(=O)NS(=O)(=O)c4ccc(N[C@H](CCN5CCOCC5)CSc5ccccc5)c(S(=O)(=O)C(F)(F)F)c4)cc3)CC2)C1	> 30 min
O=C(C1CCN(c2nc(-c3ccc(Br)cc3)cs2)CC1)N1CCNCC1	> 30 min
CC(C)CS(=O)(=O)c1oc(-c2ccc(F)cc2)nc1S(=O)(=O)c1ccccc1	1.18 min
NC(=O)C1CCN(c2ncc(-c3cccc(F)c3)s2)CC1	9.48 min
Cc1ccc(S(=O)(=O)Nc2cnccc2C(=O)Nc2ccc(C#N)cc2)cc1	7.5 min
CNc1nc(-c2cccc3ccccc23)ccc1C#N	5.7 min
COc1cccc2nc(-c3cccs3)nc(NN3C(=O)C=C(C)C3=O)c12	4.26 min
Cc1ccccc1C(=O)N1CCc2cc(-c3nc(NC(=O)Cc4ccc5c(c4)OCCO5)sc3C)ccc21	22 min
Cc1c([C@@H](C)C2NC[C@H](C)C[C@@H]2O)ccc2c1C[C@@H]1[C@H]2CC=C2C[C@@H](O)CC[C@@]21C (stereo not given in full)	> 30 min
CCN(CC)CCO[C@H]1CC[C@@]2(C)C(=CC[C@@H]3[C@@H]2CC[C@]2(C)C(=O)CC[C@@H]32)C1	5.67 min
C[C@H]1CN(C(=O)Nc2ccc(F)cc2)C[C@@H]1c1nc(-c2ccccc2)no1	> 30 min
CC(Nc1ccc([S+](=O)([O-])Nc2nccs2)cc1)c1ccccc1 (stereo not given)	13 min
Cc1c(C)n(Cc2ccccc2)c2ccc(C(=O)OCCN(C)C)cc12	1.78 min

Structure (SMILES)	half-life
O=C1CCc2cc(S(=O)(=O)Nc3ccc(F)c(Cl)c3)c(F)cc2N1	16.8 min
CC(=O)c1c(C)[nH]c(C(=O)Nc2cccc([S+](=O)([O-])N3CCC(F)(F)CC3)c2)c1C	2.4 min
COC[C@@H]1CN(C(=O)c2n[nH]c3ccccc23)C[C@H]1c1nc(C)no1	> 30 min
OCCOCCN1CCN(C(c2ccccc2)c2ccc(Cl)cc2)CC1 (stereo not given)	5.93 min
CSc1ccccc1-c1ccc(Nc2nc(-c3ccncc3)nc3ccccc23)cc1F	5.1 min
O=C(NCCc1cnc[nH]1)c1ccc(-c2ncc3cnc(-c4cccc(F)c4)cn23)cc1	> 30 min
Cc1cccc2oc(NC3=NC(c4[nH]ncc4Cl)C4=C(CCCC4=O)N3)nc12 (stereo not given)	10.6 min
CCOc1ccc(/C=C/c2nc3ccccc3n2S(=O)(=O)c2ccc(Br)cc2)cc1	> 30 min
O=C(Nc1nc(-c2ccccc2)cs1)c1ccncc1NS(=O)(=O)c1ccc(-c2ccccc2)cc1	2 min
O=C(Nc1nc(-c2ccccc2)cs1)c1ccccc1-n1cnnn1	> 30 min
COc1cc(-c2nc(Nc3ccc(F)c(F)c3)c3ccccc3n2)ccn1	> 30 min
CC(C)NC(=O)c1nc(-c2ccc(Cl)nc2)c2ccccn12	19.6 min
Cc1ccc(C(=O)N2CCc3sc(C(=O)NC(C)c4ccccc4)cc3C2)cc1 (stereo not given)	4.79 min
CN(C)S(=O)(=O)c1cccc(NC(=O)c2ccc[nH]2)c1	10.5 min
COc1ccc(NC(=O)c2c(C)cccc2C)cc1[S+](=O)([O-])N1CCCCC1	4.2 min
CCOc1ccc(CCNC(=O)c2cccc(C(=O)c3ccccc3)c2)cc1OCC	1.66 min
CC(C)(C)c1ccc(-n2cnc3cc(C(=O)N4CCCCC4)ccc32)cc1	2.7 min
O=C(c1ccc(-c2ncc3cnc(-c4ccccc4)cn23)cc1)N1CCS(=O)(=O)CC1	> 30 min
N#Cc1ccc(C(=O)Nc2ccc(Cl)c(-c3nc4cc(Cl)ccc4o3)c2)c(F)c1	> 30 min
CC1(C)CCC(CN2CCN(c3ccc(C(=O)NS(=O)(=O)c4ccc(NCC5CCOCC5)c([N+](=O)[O-])c4)c(Oc4cnc5[nH]ccc5c4)c3)CC2)=C(c2ccc(Cl)cc2)C1	> 30 min
c1cc(OCCN2CCCCC2)cc(-c2n[nH]c3ccc(-c4ncn[nH]4)cc23)c1	> 30 min
O=C(NC1CCCc2c1cnn2-c1ccc(O)cc1)c1ccccn1 (stereo not given)	> 30 min
CCOC(=O)c1ccc2c(c1)c(C(C)=O)c(C)n2-c1ccc(OC)cc1	1.5 min
Cn1nnnc1SCCCNCc1cccc(OCc2ccccc2Cl)c1	1.72 min
COc1cccc(CNc2ccc(S(=O)(=O)Nc3ccccn3)cc2)c1O	> 30 min

Structure (SMILES)	half-life
CC(=O)N1CCc2c(sc3c2c(=O)n(-c2ccccc2Cl)c(=O)n3Cc2cccc(C)c2)C1	1.41 min
Fc1ccccc1CNCc1ccc(-c2ccnc3[nH]ccc23)cc1	1.47 min
O=C1NC(=S)NC(=O)C1=Cc1cccn1-c1ccc(O)cc1	10.5 min
CN(C)C(=O)c1cc2cnc(Nc3ccc(N4CCNCC4)cn3)nc2n1C1CCCC1	> 30 min
COc1ccc(-c2ccc3nc(-c4cc(F)cc(F)c4F)oc3c2)c(OC)c1OC	> 30 min
COc1ccc(S(=O)(=O)N(CC(=O)Nc2ccc(C)cc2)c2ccc(C)cc2)cc1OC	3.28 min
Cn1nnnc1Sc1ncnc2scc(-c3cccc(S(C)(=O)=O)c3)c12	> 30 min
CC1=C[C@@H](CN2C(=O)C(C)=C(C)C2=O)[C@H](C(C)C)C[C@H]1Cc1nc2c(C)cccc2[nH]1	1.3 min
COc1cccc(CNc2ccc(S(=O)(=O)Nc3ccc(C)nc3)cc2)c1O	16 min
Cc1ccc(S(=O)(=O)Nc2cnccc2C(=O)Nc2nc(-c3nc4ccccc4s3)cs2)cc1	24 min
N#Cc1ccc(Nc2ncc(-c3cccc4ccccc34)o2)cc1	> 30 min
CS(=O)(=O)c1ccc(-c2nnc(/C=C/c3nnc(-c4ccc(C#N)cc4)o3)n2-c2ccccc2Cl)nc1	> 30 min
N[C@@H](CSCc1ccccc1)C(=O)O	> 30 min
COc1cccc(-c2nc3cc(NC(=O)c4ccc(C)c([N+](=O)[O-])c4)ccc3o2)c1	> 30 min
Cc1ccc(C(=O)Nc2nc3nc(-c4ccccc4)cc(=O)n3[nH]2)cc1	> 30 min
O=C1CCCC2=C1C(c1ccccc1C(F)(F)F)N=C(Nc1nc3ccccc3o1)N2 (stereo not given)	10 min
CC1CCN(S(=O)(=O)c2ccc3c(c2)C(C)(C)C(=O)N3CC(=O)NCc2ccco2)CC1	1.8 min
c1ccc2c(Nc3ccc4nc[nH]c4c3)nc(-c3ccncc3)nc2c1	16 min
Cc1nnc2c3ccccc3nc(N3CCN(c4ccccc4)CC3)n12	> 30 min
Fc1ccc(Cc2nc3nccc(-c4cccs4)n3n2)cc1	2.95 min
Cc1cc(NS(=O)(=O)c2ccc(NC(=O)c3oc4ccccc4c3C)cc2)nc(C)n1	> 30 min
COc1c(C)cc(NC(=O)c2nn(Cc3ccc(F)cc3)c3c2CN(C(=O)c2ccc[nH]2)C[C@]3(C)C(N)=O)cc1C	> 30 min
FC(F)(F)c1ccccc1-c1nc(NCc2cccc(Cl)c2)c2ccccc2n1	2.97 min
O=[N+]([O-])c1ccc(/C=N/n2c(CO)nc3ccccc32)s1	21 min
COc1cc(Cl)c(C)cc1NS(=O)(=O)c1c(C)nc2sccn2c1=O	1.53 min

Structure (SMILES)	half-life
Cc1nn2c(c1-c1ccccc1-c1ccccc1)N(Cc1ccc(C(=O)O)s1)CCC2	7.81 min
O=S(=O)(Nc1nccs1)c1ccc(NCc2ccccc2)cc1	10 min
Cc1ccc(NC(=O)c2cc(-c3ccc[nH]3)n[nH]2)cc1F	6.16 min
CC(C)Oc1cccc(-c2cnc(N3CCC(C(N)=O)CC3)s2)c1	23 min
Cc1ccc(S(=O)(=O)Nc2ccccc2C(=O)Nc2nc(-c3ccccc3)c(C)s2)cc1	6.3 min
Cc1nc(NC2CCCCC2)c2nc(-c3ccccc3)n(CCN(C)C)c2n1	3.74 min
O=C(Nc1cccc(C(F)(F)F)c1)C1=CCN(Cc2ccc(F)cc2)CC1	3.4 min
O=C(CSc1ccccc1)Nc1nnc(COc2ccc(Cl)cc2)s1	7 min
COc1cc2cc(CN3CCC(N(C)C)C3)c(-c3cccc(Cl)c3)nc2cc1OC (stereo not given)	23.1 min
O=C(NC1CC1)C1CCCN1C(=O)c1cccc(-c2ccccn2)c1 (stereo not given)	> 30 min
Cc1ccc(NC2=C(c3ccc(C(F)(F)F)cc3)C(=O)c3ccccc32)cc1C	5.08 min
Cn1cc(Cl)c(C2N=C(Nc3nc4ccccc4o3)NC3=C2C(=O)CCC3)n1 (stereo not given)	7.84 min
Fc1cc(Nc2nc(-c3ccncc3)nc3ccccc23)ccc1-c1cccc(OC(F)(F)F)c1	> 30 min
C#Cc1ccc(NC(=O)c2cnn3c(C)cc(C)nc23)cc1	25.5 min
CN(C)c1cccc(-c2cc(N3CCC(C(N)=O)CC3)ncn2)c1	21.1 min
O=C(O)CNC(=O)c1c(O)c2ccccc2n(Cc2ccccc2)c1=O	23.6 min
CC(C)Oc1cccc(-c2ccnc(N3CCC(C(N)=O)CC3)n2)c1	11.6 min
CCOC(=O)N1CCc2c(sc(NCc3sccc3C)c2C(=O)Nc2cc(Cl)ccc2OC)C1	9.8 min
NC1CCC(Nc2nc(Nc3ccc(C(=O)N4CCCCC4)cc3)c3ncn(-c4cccc(F)c4)c3n2)CC1 (stereo not given)	23 min
Cc1cc(/C=C2/C(=O)Nc3ccccc32)cc(C)c1O	11 min
CCOc1ccccc1C(=O)Nc1ccccc1C(=O)Nc1cccc(C(F)(F)F)c1	22.8 min
O=C(Nc1ccc(S(=O)(=O)Nc2nccs2)cc1)c1ccnc(-c2ccccc2)c1	> 30 min
CCNC(=O)c1noc(-c2cc(C(C)C)c(O)cc2O)c1-c1ccc(CN2CCOCC2)cc1	4.7 min
CC[C@@H](C)Nc1cc(C(=O)NC2CC3CCC(C2)N3c2ccc(C(=O)C3CC3)cn2)c(C)cc1C(N)=O (stereo not given in full)	23.4 min
Cc1cc(-c2nnc3n2CCCCC3)c(C)n1-c1ccc(C(F)(F)F)cc1	2.1 min
